Patent US20260207618A1, “PYRIMIDINE CARBOXAMIDE COMPOUNDS” (Acrivon Therapeutics, Inc., priority 2022, published 2026)

Experiments:
[1] = biological target: T1, recombinant human Wee1A kinase (Homo sapiens, UniProt P30291); test: LanthaScreen Europium (Eu) Kinase Binding Assay, Wee1A kinase (TR-FRET tracer displacement); conditions: 30 nM tracer 178, 5 nM Wee1A kinase, 60 minutes at room temperature
T1 construct: full length Wee1A kinase was expressed by baculovirus in insect cells; purchased Invitrogen PV3817; host or cells: insect cells (baculovirus)

[2] = system: Cdk1 phosphorylated on tyrosine 15; test: High-content imaging of pCdk1 Y15 by immunofluorescence in ACHN cells; assay type: cell-based; conditions: Homo sapiens, high-content imaging (IF), 4 h, 7 to 5000 nM, read-out: CDK1 Tyr15 Phosphorylation EC50 (IC50)
Procedure, shortened: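 ACHN cells were treated with compounds at 7–5000 nM for 4 h, then fixed, permeabilised and immunostained for pCDK1 Y15, with DAPI as nuclear counterstain. Automated imaging gave the percentage of cells with nuclear pCDK1 Y15 positivity relative to DMSO control. EC50 values came from dose-response curves.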

T1 sequence (P30291 whole entry): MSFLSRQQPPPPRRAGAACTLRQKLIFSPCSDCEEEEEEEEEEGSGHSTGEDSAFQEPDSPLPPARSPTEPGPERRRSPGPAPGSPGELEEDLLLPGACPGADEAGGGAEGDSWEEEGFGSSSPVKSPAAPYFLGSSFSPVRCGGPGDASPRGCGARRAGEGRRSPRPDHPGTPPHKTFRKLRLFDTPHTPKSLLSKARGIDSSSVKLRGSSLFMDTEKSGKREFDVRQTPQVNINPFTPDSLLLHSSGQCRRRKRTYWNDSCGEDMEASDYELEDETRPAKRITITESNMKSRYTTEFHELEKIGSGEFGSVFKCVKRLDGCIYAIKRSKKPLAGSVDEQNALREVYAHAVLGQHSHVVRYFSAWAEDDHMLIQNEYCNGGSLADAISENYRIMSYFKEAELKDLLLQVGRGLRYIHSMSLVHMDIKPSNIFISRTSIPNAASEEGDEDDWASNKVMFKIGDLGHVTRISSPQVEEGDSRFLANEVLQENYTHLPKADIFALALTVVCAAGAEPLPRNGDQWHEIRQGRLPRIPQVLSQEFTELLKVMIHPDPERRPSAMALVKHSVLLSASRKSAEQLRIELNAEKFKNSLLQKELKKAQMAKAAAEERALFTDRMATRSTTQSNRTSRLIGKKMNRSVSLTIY

| IC50 [1] [nM] | EC50 [2] [nM] | Compound |
| --- | --- | --- |
| 10 to 100 | 100 to 500 | COc1nc(Nc2ccc(C3CCN(C)CC3)c(C#N)c2)ncc1C(=O)Nc1c(Cl)ccc(O)c1C [Compound 157, N-(6-chloro-3-hydroxy-2-methylphenyl)-2-((3-cyano-4-(1-methylpiperidin-4-yl)phenyl)amino)-4-methoxypyrimidine-5-carboxamide] |
| ≤ 10 | > 1000 | COc1nc(Nc2ccc(C3CCN(C)CC3)c(C)c2)ncc1C(=O)Nc1c(Cl)ccc(F)c1F [Compound 125, N-(6-chloro-2,3-difluorophenyl)-4-methoxy-2-((3-methyl-4-(1-methylpiperidin-4-yl)phenyl)amino)pyrimidine-5-carboxamide] |
| ≤ 10 | 100 to 500 | COc1nc(Nc2ccc(OC3CCN(C)CC3)c(C)c2)ncc1C(=O)Nc1c(Cl)cccc1Br [Compound 220, N-(2-bromo-6-chlorophenyl)-4-methoxy-2-((3-methyl-4-((1-methylpiperidin-4-yl)oxy)phenyl)amino)pyrimidine-5-carboxamide] |
| ≤ 10 | 100 to 500 | COc1nc(Nc2ccc(C3CCN(C)CC3)c(C)c2)ncc1C(=O)Nc1c(Br)cccc1C#N [Compound 134, N-(2-bromo-6-cyanophenyl)-4-methoxy-2-((3-methyl-4-(1-methylpiperidin-4-yl)phenyl)amino)pyrimidine-5-carboxamide] |
| ≤ 10 | 100 to 500 | COc1nc(Nc2cnn([C@H]3CCCN(C)CC3)c2)ncc1C(=O)Nc1c(Cl)cccc1Cl [Compound 189, N-2,6-dichlorophenyl-2-{1-[(S)-1-methyl-4-azepanyl]-4-pyrazolylamino}-4-methoxy-5-pyrimidinecarboxamide] |
| ≤ 10 | 100 to 500 | COc1nc(Nc2ccc(C3CCN(C)CC3)c(C)c2)ncc1C(=O)Nc1c(F)ccc(F)c1Cl [Compound 128, N-(2-chloro-3,6-difluorophenyl)-4-methoxy-2-((3-methyl-4-(1-methylpiperidin-4-yl)phenyl)amino)pyrimidine-5-carboxamide] |
| ≤ 10 | 100 to 500 | COc1nc(Nc2ccc(C3CCN(C)CC3)c(C)c2)ncc1C(=O)Nc1c(F)cccc1Br [Compound 136, N-(2-bromo-6-fluorophenyl)-4-methoxy-2-((3-methyl-4-(1-methylpiperidin-4-yl)phenyl)amino)pyrimidine-5-carboxamide] |
| ≤ 10 | 100 to 500 | COc1nc(Nc2ccc(OC3CCNCC3)c(C)c2)ncc1C(=O)Nc1c(Cl)cccc1Br [Compound 219] |
| ≤ 10 | 100 to 500 | CCOc1cc(Nc2ncc(C(=O)Nc3c(Cl)cccc3Br)c(OC)n2)ccc1C1CCN(C)CC1 [Compound 217, N-(2-bromo-6-chlorophenyl)-2-((3-ethoxy-4-(1-methylpiperidin-4-yl)phenyl)amino)-4-methoxypyrimidine-5-carboxamide] |
| ≤ 10 | > 1000 | COc1nc(Nc2cnn([C@@H]3CCCNCC3)c2)ncc1C(=O)Nc1c(Cl)cccc1Cl (single isomer, unassigned) [Compound 186] |
| ≤ 10 | 100 to 500 | COc1nc(Nc2cc(C)c(N3CCC(N(C)C)CC3)c(F)c2)ncc1C(=O)Nc1c(Cl)cccc1Br [Compound 214] |
| ≤ 10 | 100 to 500 | COc1nc(Nc2ccc([C@H]3CCN(C)C3)c(C)c2)ncc1C(=O)Nc1c(Cl)cccc1Br [Compound 192] |
